The values that follow come from patent publication US9745310B2 (SK BIOPHARMACEUTICALS CO., LTD., priority 2015, dated 2017).

Chain of human mGluR5 receptor (P41594 21-1212): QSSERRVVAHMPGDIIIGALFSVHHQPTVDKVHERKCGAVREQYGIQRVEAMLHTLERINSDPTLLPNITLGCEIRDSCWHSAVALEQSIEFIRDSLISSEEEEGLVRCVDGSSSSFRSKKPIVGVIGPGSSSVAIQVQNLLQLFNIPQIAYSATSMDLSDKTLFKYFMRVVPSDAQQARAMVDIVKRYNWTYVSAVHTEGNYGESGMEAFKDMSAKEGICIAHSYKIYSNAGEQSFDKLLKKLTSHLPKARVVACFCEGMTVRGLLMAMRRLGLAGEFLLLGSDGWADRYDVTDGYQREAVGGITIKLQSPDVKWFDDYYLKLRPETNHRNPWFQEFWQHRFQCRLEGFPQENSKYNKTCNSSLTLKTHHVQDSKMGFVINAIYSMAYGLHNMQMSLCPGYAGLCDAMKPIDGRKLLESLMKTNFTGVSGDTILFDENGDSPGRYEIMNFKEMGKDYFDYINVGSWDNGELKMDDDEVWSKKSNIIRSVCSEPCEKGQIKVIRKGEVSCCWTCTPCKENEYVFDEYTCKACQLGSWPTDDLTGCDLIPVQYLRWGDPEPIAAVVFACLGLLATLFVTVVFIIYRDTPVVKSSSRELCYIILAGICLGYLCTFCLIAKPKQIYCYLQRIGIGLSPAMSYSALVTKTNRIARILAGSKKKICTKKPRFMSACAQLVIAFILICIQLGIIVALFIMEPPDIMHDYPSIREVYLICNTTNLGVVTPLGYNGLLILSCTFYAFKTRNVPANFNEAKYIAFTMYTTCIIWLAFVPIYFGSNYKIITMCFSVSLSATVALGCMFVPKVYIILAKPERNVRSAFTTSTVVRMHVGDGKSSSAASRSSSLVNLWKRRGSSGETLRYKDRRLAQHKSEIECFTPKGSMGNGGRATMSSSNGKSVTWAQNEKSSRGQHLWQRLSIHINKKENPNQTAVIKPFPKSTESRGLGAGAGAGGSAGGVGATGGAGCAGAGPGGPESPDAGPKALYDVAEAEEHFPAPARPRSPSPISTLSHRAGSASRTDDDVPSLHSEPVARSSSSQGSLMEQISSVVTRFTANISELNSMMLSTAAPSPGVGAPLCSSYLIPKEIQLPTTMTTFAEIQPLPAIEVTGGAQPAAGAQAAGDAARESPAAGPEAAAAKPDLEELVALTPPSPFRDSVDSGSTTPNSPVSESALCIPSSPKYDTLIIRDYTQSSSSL

In the experiment the target is human mGluR5 receptor (Homo sapiens (Human), UniProt P41594). As to the kind of experiment: Calcium influx assay based on fluorescence (mGluR5 PAM activity). The following applies: human mGluR5 receptor-overexpressed HEK293 cell line; L-glutamate EC20; Fluo-4, FLIPR. The protocol:
Efficacy as a positive allosteric modulator (PAM) of mGluR5 of the compounds of the Examples was tested as follows:
Calcium Influx Assay Based on Fluorescence
Ca^2+ (calcium) influx assay is an experiment for measuring the activity of a positive allosteric modulator of mGluR5 receptor in which human mGluR5 receptor-overexpressed HEK293 cell line is used. The day before the experiment, cells were prepared in a cell culture medium (DMEM, 5% FBS) with the density of 80,000/well, and 100 μl of cells were dispensed into each well of a poly-D-lysine-coated 96-well plate. Cells were incubated in a 5% CO2, 37° C. incubator. The next day, the cell culture medium was removed from the plate, and 100 μl of 1× Fluo-4 calcium indicator diluted with a buffer (1× Hank's balanced salt solution, 20 mM HEPES, 2.5 mM probenecid) were added to each well and incubated at 37° C. for 1 hour. The compound stock solutions were prepared in 100% DMSO, and the compounds were serially diluted with a ¼ dilution to 6 or 7 concentrations (final concentration was 10 μM to 10 nM). The diluted compound solutions were added to the plate with 0.1 to 0.2% of final DMSO concentration. 1 hour after the addition of Fluo-4 calcium indicator, L-glutamate (EC20 concentration) and the test compound solutions were added to the plate, and Ca^2+ reaction was then measured by FLIPR at room temperature. The activity of the compounds was standardized on the basis of the results of maximum value-minimum value of fluorescent reaction, and the activity value was calculated on the basis that no activity on glutamate EC20 is 0% and the reaction to glutamate maximum value is 100%.
The EC50 is the concentration that produces a half-maximal response. Regarding `Cc1ccccc1-c1cnc2nc(COc3ccnc(F)c3)cn2n1` [Example 185, 2-(2-methylphenyl)-6-((2-fluoropyridin-4-yloxy)methyl)imidazo[1,2-b][1,2,4]triazine], the EC50 lay in the range of 100 to 500 nM.

As to `COc1cc(-c2cnc3nc(COc4ccccc4)cn3c2)ccc1F` [Example 21, 6-(4-fluoro-3-methoxyphenyl)-2-phenoxymethylimidazo[1,2-a]pyrimidine], the EC50 is 500 to 1000 nM.

With `Fc1ccc(-c2cnc3nc(COc4ccccc4)cn3c2)c(C(F)(F)F)c1` [Example 18, 6-(4-fluoro-2-trifluoromethylphenyl)-2-phenoxymethylimidazo[1,2-a]pyrimidine], the EC50 was in the range of 100 to 500 nM.

`Cc1cc(F)ccc1-c1cnc2nc(COc3cncc(Cl)c3)cn2c1` [Example 160, 6-(4-fluoro-2-methylphenyl)-2-(5-chloropyridin-3-yloxymethyl)imidazo[1,2-a]pyrimidine]: the EC50 is 500 to 1000 nM.

As to `COc1c(F)cccc1-c1cnc2nc(COc3cc(F)ccn3)cn2c1` [Example 121, 6-(3-fluoro-2-methoxy-phenyl)-2-[(4-fluoro-2-pyridyl)oxymethyl)imidazo[1,2-a]pyrimidine], the half-maximal effective concentration (EC50) is 100 to 500 nM.

Regarding `FC(F)(F)c1cc(Cl)ccc1-c1cnc2nc(COc3ccccn3)cn2n1` [Example 189, 2-[4-chloro-2-(trifluoromethyl)phenyl]-6-(2-pyridyloxymethyl)imidazo[1,2-b][1,2,4]triazine], the EC50 lay within 500 to 1000 nM.

For `NC(=O)OCc1cc(F)ccc1-c1cnc2nc(COc3ccccc3)cn2c1` [Example 194, [5-fluoro-2-[2-(phenoxymethyl)imidazo[1,2-a]pyrimidin-6-yl]phenyl]methyl carbamate], the 50% effective concentration (EC50) lay within 100 to 500 nM.

Take `Fc1cncc(OCc2cn3cc(-c4ccc(F)cc4C(F)(F)F)cnc3n2)c1` [Example 173, 2-[(5-fluoro-3-pyridyl)oxymethyl]-6-[4-fluoro-2-(trifluoromethyl)phenyl]imidazo[1,2-a]pyrimidine]: the EC50 is 500 to 1000 nM.

`Cc1ccc(N)c(-c2cnc3nc(COc4cccc(F)c4)cn3c2)c1` [Example 100, 2-[2-[(3-fluorophenoxy)methyl]imidazo[1,2-a]pyrimidin-6-yl]-4-methyl-aniline]: the EC50 was 500 to 1000 nM.

With `Cc1ccncc1-c1cnc2nc(COc3ccc(F)cc3)cn2c1` [Example 78, 2-[(4-fluorophenoxy)methyl]-6-(4-methyl-3-pyridyl)imidazo[1,2-a]pyrimidine], the EC50 was 100 to 500 nM.

Turning to `Fc1ccc(-c2cnc3nc(COc4cccnc4)cn3c2)c(F)c1` [Example 148, 6-(2,4-difluorophenyl)-2-(pyridin-3-yloxymethyl)imidazo[1,2-a]pyrimidine], the 50% effective concentration (EC50) lay in the range of 500 to 1000 nM.

Turning to `Oc1cc(-c2cnc3nc(COc4cccc(F)c4)cn3c2)ccc1F` [Example 43, 6-(4-fluoro-3-hydroxyphenyl)-2-(3-fluorophenoxymethyl)-imidazo[1,2-a]pyrimidine], the EC50 is 100 to 500 nM.

Consider `O=Cc1ccc(-c2cnc3nc(COc4ccccn4)cn3c2)c(C(F)(F)F)c1` [Example 144, 4-[2-(2-pyridyloxymethyl)imidazo[1,2-a]pyrimidin-6-yl]-3-(trifluoromethyl)benzaldehyde], for which the EC50 is 500 to 1000 nM.

As for `COc1cc(C#N)ccc1-c1cnc2nc(COc3cccc(F)c3)cn2c1` [Example 95, 4-[2-[(3-fluorophenoxy)methyl]imidazo[1,2-a]pyrimidin-6-yl]-3-methoxy-benzonitrile], the EC50 lay in the range of 100 to 500 nM.

Take `Fc1cc(OCc2cn3cc(-c4cccc(F)c4F)cnc3n2)ccn1` [Example 165, 6-(2,3-difluorophenyl)-2-(2-fluoropyridin-4-yloxymethyl)imidazo[1,2-a]pyrimidine]: the EC50 is 100 to 500 nM.

On to `COc1cc(F)ccc1-c1cnc2nc(COc3ccccn3)cn2c1` [Example 104, 6-(4-fluoro-2-methoxyphenyl)-2-(pyridin-2-yloxymethyl)imidazo[1,2-a]pyrimidine], for which the EC50 was in the range of 100 to 500 nM.

For `Fc1ccc(-c2cnc3nc(COc4cccc(F)c4)cn3c2)nc1` [Example 93, 2-[(3-fluorophenoxy)methyl]-6-(5-fluoro-2-pyridyl)imidazo[1,2-a]pyrimidine], the EC50 fell in the range of 100 to 500 nM.

Regarding `COc1cc(F)ccc1-c1cnc2nc(COc3cccnc3)cn2c1` [Example 147, 6-(4-fluoro-2-methoxyphenyl)-2-(pyridin-3-yloxymethyl)imidazo[1,2-a]pyrimidine], the EC50 is 500 to 1000 nM.

As to `Cc1ccc(F)cc1-c1cnc2nc(COc3ccc(F)cc3)cn2c1` [Example 61, 6-(5-fluoro-2-methyl-phenyl)-2-[(4-fluorophenoxy)methyl]imidazo[1,2-a]pyrimidine], the EC50 fell in the range of 500 to 1000 nM.

With `COCc1cc(F)ccc1-c1cnc2nc(COc3ccccn3)cn2c1` [Example 141, 6-[4-fluoro-2-(methoxymethyl)phenyl]-2-(2-pyridyloxymethyl)imidazo[1,2-a]pyrimidine], the EC50 was 100 to 500 nM.

Take `Cc1ccc(-c2cnc3nc(COc4ccc(F)cc4)cn3c2)c(N)c1` [Example 74, 2-[2-[(4-fluorophenoxy)methyl]imidazo[1,2-a]pyrimidin-6-yl]-5-methyl-aniline]: the EC50 fell in the range of 100 to 500 nM.

With `Cc1cc(F)ccc1-c1cnc2nc(COc3ccc(F)cn3)cn2n1` [Example 192, 2-(4-fluoro-2-methyl-phenyl)-6-[(5-fluoro-2-pyridyl)oxymethyl]imidazo[1,2-b][1,2,4]triazine], the EC50 fell in the range of 100 to 500 nM.

For the compound `Oc1cc(F)ccc1-c1cnc2nc(COc3cncc(F)c3)cn2c1` [Example 156, 6-(4-fluoro-2-hydroxyphenyl)-2-(5-fluoropyridin-3-yloxymethyl)imidazo[1,2-a]pyrimidine], the EC50 was in the range of 100 to 500 nM.

For the compound `Cc1c(F)cccc1-c1cnc2nc(COc3ccc(F)cn3)cn2c1` [Example 124, 6-(3-fluoro-2-methyl-phenyl)-2-[(5-fluoro-2-pyridyl)oxymethyl)imidazo[1,2-a]pyrimidine], the EC50 lay in the range of 100 to 500 nM.

For `CSc1cc(F)ccc1-c1cnc2nc(COc3ccccc3)cn2c1` [Example 26, 6-(4-fluoro-2-methylthiophenyl)-2-phenoxymethylimidazo[1,2-a]pyrimidine], the EC50 was in the range of 100 to 500 nM.

In the case of `Fc1ccc(OCc2cn3cc(-c4cncc(Cl)c4)cnc3n2)cc1` [Example 88, 6-(5-chloro-3-pyridyl)-2-[(4-fluorophenoxy)methyl]imidazo[1,2-a]pyrimidine], the EC50 was 100 to 500 nM.

Take `Clc1ccc(-c2cnc3nc(COc4ccccc4)cn3c2)cn1` [Example 34, 6-(6-chloropyridin-3-yl)-2-phenoxymethylimidazo[1,2-a]pyrimidine]: the EC50 was 100 to 500 nM.

Regarding `Fc1ccc(OCc2cn3cc(-c4ccc(F)cc4F)cnc3n2)cc1` [Example 47, 6-(2,4-difluorophenyl)-2-(4-fluorophenoxymethyl)imidazo[1,2-a]pyrimidine], the EC50 is 100 to 500 nM.

Turning to `Fc1ccc(-c2cnc3nc(COc4ccccc4)cn3n2)c(F)c1` [Example 178, 2-(2,4-difluorophenyl)-6-(phenoxymethyl)imidazo[1,2-b][1,2,4]triazine], the EC50 was 100 to 500 nM.

On to `Fc1ccc(-c2cnc3nc(COc4ccccn4)cn3c2)c(F)c1` [Example 105, 6-(2,4-difluorophenyl)-2-(pyridin-2-yloxymethyl)imidazo[1,2-a]pyrimidine], for which the EC50 is 100 to 500 nM.

`FC(F)(F)c1ccc(-c2cnc3nc(COc4ccccn4)cn3c2)cn1` [Example 130, 2-(2-pyridyloxymethyl)-6-[6-(trifluoromethyl)-3-pyridyl]imidazo[1,2-a]pyrimidine]: the EC50 lay in the range of 100 to 500 nM.

Turning to `Fc1ccc(OCc2cn3cc(-c4ccc(F)cc4C(F)(F)F)cnc3n2)nc1` [Example 119, 2-[(5-fluoro-2-pyridyl)oxymethyl]-6-[4-fluoro-2-(trifluoromethyl)phenyl]imidazo[1,2-a]pyrimidine], the EC50 lay within 100 to 500 nM.

`Fc1cc(-c2cnc3nc(COc4ccccc4)cn3c2)ccn1` [Example 35, 6-(2-fluoropyridin-4-yl)-2-phenoxymethylimidazo[1,2-a]pyrimidine]: the EC50 was in the range of 100 to 500 nM.

As to `Fc1ccc(OCc2cn3cc(-c4ccnc(F)c4)cnc3n2)cc1` [Example 62, 2-[(4-fluorophenoxy)methyl]-6-(2-fluoro-4-pyridyl)imidazo[1,2-a]pyrimidine], the EC50 lay in the range of 500 to 1000 nM.

Regarding `Cc1cc(-c2cnc3nc(COc4ccccc4)cn3c2)cnc1F` [Example 39, 6-(6-fluoro-5-methyl-3-pyridyl)-2-phenoxymethylimidazo[1,2-a]pyrimidine], the EC50 was in the range of 100 to 500 nM.

Consider `FC(F)(F)c1cc(Cl)ccc1-c1cnc2nc(COc3ccccn3)cn2c1` [Example 145, 6-[4-chloro-2-(trifluoromethyl)phenyl]-2-(2-pyridyloxymethyl)imidazo[1,2-a]pyrimidine], for which the EC50 is 100 to 500 nM.

Turning to `Fc1ccc(-c2cnc3nc(COc4ccnc(F)c4)cn3c2)c(C(F)(F)F)c1` [Example 174, 2-[(2-fluoro-4-pyridyl)oxymethyl]-6-[4-fluoro-2-(trifluoromethyl)phenyl]imidazo[1,2-a]pyrimidine], the EC50 was 100 to 500 nM.
